Measurements: patent US6395760B1, “Pesticidal 1-arylpyrazoles” (Rhone-Poulenc Inc., priority 1997, dated 2002)

Legend:
Design in all cases: key: ‘X’ means highly active; ‘+’ means moderately active; ‘−’ means low activity
Aphis gossypii = assay: Soil drench test (systemic activity), aphids on cotton plants; format: in vivo; settings: 10.0 ppm soil concentration by weight, aphid counts at 5 DAT vs untreated control
Text: (§1) The Soil Drench Test (Systemic Activity) Cotton and sorghum plants were established in pots. One day prior to treatment, each pot was infested with about 25 aphids of a mixed population. Cotton plants were infested with aphids and sorghum plants were infested with the greenbug. The selected compound of formula (I) was applied to the soil surface in a dilution that delivered the equivalent of 10.0 ppm soil concentration by weight. Aphid counts were obtained at 5 DAT (=days after treatment). The number of aphids on the treated plants was compared to the number of those on the untreated control plants.

Schizaphis graminum = assay: Soil drench test (systemic activity), greenbug on sorghum plants; format: in vivo; settings: 10.0 ppm soil concentration by weight, counts at 5 DAT vs untreated control
Text: as §1

Musca domestica = assay: Housefly bait/contact test; format: in vivo; settings: 50 ppm in sugar water bait solution, adult houseflies, mortality after 24 hours
Text: The Housefly Bait/Contact Test About 25 four to six-day-old adult houseflies were anesthetized and placed in a cage with a sugar water bait solution containing the compound. The concentration of the selected compound of formula (I) in the bait solution was 50 ppm.

A. gossypii = assay: Foliar application (contact test) with aphids; format: in vivo, Aphis gossypii; settings: 100 ppm formulation sprayed to runoff on aphid-infested cotton plants, dead aphids counted three days after treatment
Text: Foliar Application (Contact Test) with Aphids Aphid-infested cotton plants were placed on a revolving turntable, and sprayed to runoff with a 100 ppm formulation of the selected compound of formula (I). The treated, A. gossypii-infested plants were held for three days after treatment, after which the dead aphids were counted.

Row | SMILES | Systemic activity on aphids (Aphis gossypii) | Systemic activity on greenbugs (Schizaphis graminum) | Activity on house flies by contact (Musca domestica) | Foliar activity on aphids (A. gossypii)
1 | CC1(c2nn(-c3c(Cl)cc(C(F)(F)F)cc3Cl)c(N)c2S(C)(=O)=O)OCC(CO)O1 (centres unmarked) [Compound 7] | X | X | + | X
2 | CSc1c(C2(C)OCCO2)nn(-c2c(Cl)cc(C(F)(F)F)cc2Cl)c1N [Compound 3] | X | X | X | X
3 | CSc1c(C2(C)SCC[S+]2[O-])nn(-c2c(Cl)cc(C(F)(F)F)cc2Cl)c1N (centres unmarked) [Compound 19] | − | + | X | X
4 | CC1(c2nn(-c3c(Cl)cc(C(F)(F)F)cc3Cl)c(N)c2S(C)(=O)=O)[S+]([O-])CC[S+]1[O-] (centres unmarked) [Compound 22] | X | + | − | −
5 | C[S+]([O-])c1c(C2(C)SCC[S+]2[O-])nn(-c2c(Cl)cc(C(F)(F)F)cc2Cl)c1N (centres unmarked) [Compound 20] | − | − | X | −
6 | C[S+]([O-])c1c(C2(C)OCC(CO)O2)nn(-c2c(Cl)cc(C(F)(F)F)cc2Cl)c1N (centres unmarked) [Compound 26] | − | + | X | −
7 | CSc1c(C2(C)OCC(C[S+](C)[O-])O2)nn(-c2c(Cl)cc(C(F)(F)F)cc2Cl)c1N (centres unmarked) [Compound 28] | X | − | X | X
8 | CC1COC(C)(c2nn(-c3c(Cl)cc(C(F)(F)F)cc3Cl)c(N)c2[S+](C)[O-])O1 (centres unmarked) [Compound 11] | X | X | X | X
